Test results: patent USRE38115E1, “Dextromethorphan and an oxidase inhibitor for treating intractable conditions” (Center for Neurologic Study, priority 1996, dated 2003)
“And” between values parts separate entries of the source, which are not always exact repeats. Equal values may be shown once.

Tests used:
[1] = biological target: debrisoquin hydroxylase (Homo sapiens, UniProt P10635); conditions: cited from earlier work
[2] = tested on: dextromethorphan metabolism; assay: Urinary DM/DR ratios (Example 1); conditions: urine, several hours after single 60 mg oral DM; ALS patients, one value per patient
Method: Six patients suffering from ALS were administered orally a single 60 mg dextromethorphan dose. Several hours later, a urine sample was collected, and the urine concentrations of dextromethorphan (DM) and dextrorphan (DR) were measured as described below to determine a DM/DR ratio.
To this was added 2000 units of betaglucuronidase in 1 mL of acetate buffer (0.1M, pH 5.0). The mixture was incubated for 18 hours at 37° C. and then extracted by adding 1 mL of phosphate buffer (pH 12, 0.10M) and 7 mL of n-butanol/hexane (10:90 v/v). After mixing and centrifugation, the organic layer was transferred to a clean tube, acidified with 400 uL of 0.01N HCL and 20 microliters (uL) of aqueous phase injected into a high performance liquid chromatography (HPLC) system. The HPLC used a phenyl column equilibrated with a mobile phase of acetonitrile:water (51:49 v/v) containing 10 mM KHPO4, 10 mM hexane sulfonic acid, pH 4.0 (flow rate 1.2 mL/min).
Briefly, 0.5 ml urine samples were spiked with 500 nanograms (ng) of dimethacrine. The urine pH was adjusted to […] with 0.1M acetate buffer (usually about 1.0 ml), and beta-glucuronidase was added (2000 units/ml urine). The mixture was incubated and shaken at 37° C. for 18 hours. The urine was subsequently adjusted to pH 10-11 with 1.0 mL of phosphate buffer and the urine extracted with 5 mL of dichloromethane. […]

[3] = Plasma concentrations of DM (Example 2); assay type: in vivo, human; conditions: DM 120 MG/DAY oral, quinidine 0; blood 10-12 hours later; one value per patient; listed as dextromethorphan
Method: Between 10 and 12 hours later, blood was sampled, blood plasma was isolated by centrifugation, and the plasma was analyzed to determine the DM concentration using the thebaine/HPLC method.
Between 10 and 12 hours later, blood was sampled and the plasma was analyzed for DM using thebaine/HPLC.

[4] = tested on: DM oxidation; assay: Urinary DM/DRP ratio with other antioxidants (Example 4); conditions: urine; for baseline DM/DRP ratio: DM alone
Method: In these tests, DM was administered at a constant dosage to various individuals, all were healthy volunteers. DM was taken both before and after a candidate antioxidant was taken, and urine samples were collected at appropriate times and analyzed to determine the quantity of DM and its principle metabolite dextrorphan (DRP) in the urine.
Twelve healthy volunteers were studied.
After the baseline DM/DRP value for each volunteer had been determined, a candidate antioxidant was administered. […] After an appropriate delay, a second urine sample was obtained and analyzed. Each agent was administered to two patients.

[5] = tested on: patients with emotional lability; conditions: patients with bilateral neurological damage; described in U.S. Pat. No. 5,206,248; cited from earlier work

Chain of debrisoquin hydroxylase (P10635 whole entry): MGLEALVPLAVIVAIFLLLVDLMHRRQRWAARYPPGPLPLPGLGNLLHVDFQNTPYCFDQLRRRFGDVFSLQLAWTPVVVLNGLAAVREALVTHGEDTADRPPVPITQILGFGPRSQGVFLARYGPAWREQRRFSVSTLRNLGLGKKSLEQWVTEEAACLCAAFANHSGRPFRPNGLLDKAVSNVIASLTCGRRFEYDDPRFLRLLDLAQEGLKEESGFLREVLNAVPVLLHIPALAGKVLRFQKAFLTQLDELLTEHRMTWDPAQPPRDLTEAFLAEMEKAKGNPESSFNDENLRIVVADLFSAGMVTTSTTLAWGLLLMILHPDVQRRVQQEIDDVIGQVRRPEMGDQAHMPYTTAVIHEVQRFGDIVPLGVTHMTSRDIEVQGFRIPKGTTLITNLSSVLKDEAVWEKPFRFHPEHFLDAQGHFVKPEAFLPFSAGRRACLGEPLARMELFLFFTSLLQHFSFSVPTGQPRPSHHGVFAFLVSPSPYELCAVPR

For `Cc1cccc(C)c1OCC(C)N` (stereo not shown) [mexiletine], the Ki [1] is listed as at most 50 µM.
In the case of `C=CCOc1ccccc1OCC(O)CNC(C)C` (stereo not shown) [oxprenolol], the Ki [1] is given as at most 50 µM.
For `CNCCC=C1c2ccccc2CCc2ccccc21` [nortriptyline], the Ki [1] is listed as at most 50 µM.
In the case of `COc1ccc2c(c1)[C@@]13CCCC[C@H]1[C@@H](C2)N(C)CC3` [DM, (+)-3-methoxy-N-methylmorphinan], the “DM/DR Ratio, no quinidine” value [2] is reported as <0.0002 and 0.054 and 0.0048 and 0.0220 and 0.0002 and 0.0003, the “DEXTROMETHORPHAN PLASMA LEVEL” value [3] is reported as 9.3 NG/ML and NOT DETECTABLE (2×) and 16.5 NG/ML and 6.05 NG/ML and the “baseline DM/DRP ratio” value ([4]; extensive metabolizers, healthy volunteers) is reported as at most 0.06. The “baseline DM/DRP ratio” value ([4]; one poor metabolizer (control)) was 1.338, the “DM/DRP ratio, pre-drug baseline” value ([4]; DM before candidate antioxidant, single subjects) was 0.02 (2×) and 0.00 (3×) and 0.03 and 0.06 (2×) and the “effect on symptoms of emotional lability” value [5] was “not observed in any patients who received DM alone”.
For `CC(CCc1ccccc1)NCC(O)c1ccc(O)c(C(N)=O)c1` (stereo not shown) [labetalol], the Ki [1] is listed as at most 50 µM.
